Data taken from patent US20250041307A1, “Uses of Bicyclic Compounds for the Treatment of Diseases” (Athira Pharma, Inc., priority 2021, published 2025).

Assays:
[1] = In vitro stability in human plasma; type: in vitro ADME; conditions: 5 μM, 37° C.
Protocol: (§1) Bioavailability can be estimated by compound stability when exposed to conditions in the body. As an initial assessment of stability properties in a variety of conditions present in animals, exemplary compounds were tested for stability in a battery of simulated body compartments. Compounds were tested for stability in the following solutions: simulated gastric fluid (SGF: 34.2 mM NaCl, pH 1.2), simulated gastric fluid with the digestive enzyme pepsin (SGF+Enzyme: SGF with 3.2 mg/ml pepsin), simulated intestinal fluid with the mixture of enzymes in porcine pancreatin (SIF+Enzyme: 28.7 mM NaH2PO4, 105.7 mM NaCl, pH 6.8, 10 mg/ml pancreatin), rat plasma, and human plasma.
(§2) Test compounds were incubated at a final concentration of 5 μM in the above solutions at 37° C. with samples removed at the following time points: 0, 1, 2, and 4 hours. Reactions were stopped and prepared for quantification by addition of excess quench solution containing an internal standard (acetonitrile, 200 ng/mL bucetin). Test compound and internal standard in each sample was quantified by LC-MS/MS, and after internal normalization to bucetin, test compound concentration was expressed as a percentage of concentration at the 0-hour time point. Stability in the relevant test solution was then determined by the percent remaining at the 4-hour time point.

[2] = In vivo tissue distribution; design: species or system Sprague-dawley rats; conditions: rat, 10 minutes post administration
Protocol: The rate of distribution to target tissues is an important feature of therapeutic molecules. Tissue distribution of exemplary compounds was performed in mixed-sex Sprague-dawley rats. Test compounds were delivered via tail vein injection (IV) and tissues were collected at Tmax (10 minutes post administration). Animals were deeply anesthetized with isoflurane and whole blood was collected from the right atrium and processed by centrifugation to produce plasma. Animals were then fully perfused with PBS administered to the left ventricle to prevent blood contamination of tissues.
Tissues were collected and homogenized, and compound content in the target tissue was quantified by LC-MS/MS. Tissue distribution rates were determined by dividing the tissue concentration of compound by the plasma concentration and multiplying by 100.

[3] = In vitro stability in rat plasma; type: in vitro ADME; conditions: 5 μM, 37° C.
Protocol: as §1, §2

HGF/MET system = assay: Phospho-MET ELISA; type: cell-based; conditions: HEK293 cells; with 1 ng/mL recombinant HGF; 15 minutes; augmentation of MET phosphorylation (pMET ELISA)
Method in brief: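 Serum-starved (≥8 h) HEK293 cells treated with compound plus 1 ng/mL recombinant HGF for 15 min at 37° C in triplicate, then lysed in RIPA. Equal protein (50–100 μg, BCA-normalized) run in pMET sandwich ELISA, A450 read. Responses scaled 1–10 between 1 ng/mL and 10 ng/mL HGF means, using peak efficacy.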

Row | SMILES | Human Plasma, compound remaining after 4 hours [1] | Tissue Distribution (% Plasma exposure at 10 min post IV dose) Brain [2] | Tissue Distribution (% Plasma exposure at 10 min post IV dose) Cerebellum [2] | Tissue Distribution (% Plasma exposure at 10 min post IV dose) Cortex [2] | Tissue Distribution (% Plasma exposure at 10 min post IV dose) Hippocampus [2] | Tissue Distribution (% Plasma exposure at 10 min post IV dose) Sciatic Nerve [2] | Rat Plasma, compound remaining after 4 hours [3] | Potency (HGF/MET system) | Tissue Distribution (% Plasma exposure at 10 min post IV dose) Muscle [2]
1 | CC1C(=O)N(CCC2CCC2)CC2N(C(=O)c3ccc(C(F)(F)F)cc3)CCC(=O)N12 (stereo not drawn) [Compound 20] | +++ (+++ indicates 80-99% compound remaining after 4 hours) | ++++ (++++ indicates distribution above 70%) | ++++ (++++ indicates distribution above 70%) | ++++ (++++ indicates distribution above 70%) | +++ (+++ indicates distribution between 40 and 69%) | ++++ (++++ indicates distribution above 70%) | ++ (++ indicates 40-79% compound remaining after 4 hours) | + (+ indicates maximum potency at or above 100 nM) | –
2 | CCC(C)CN1CC2N(C(=O)c3ccc(C(F)(F)F)c(Cl)c3)CCC(=O)N2C(C)C1=O (stereo not drawn) [Compound 12, 1-(3-chloro-4-(trifluoromethyl)benzoyl)-6-methyl-8-(2-methylbutyl)hexahydro-4H-pyrazino[1,2-a]pyrimidine-4,7(6H)-dione] | +++ (+++ indicates 80-99% compound remaining after 4 hours) | ++ (++ indicates distribution between 5 and 39%) | ++ (++ indicates distribution between 5 and 39%) | ++ (++ indicates distribution between 5 and 39%) | ++ (++ indicates distribution between 5 and 39%) | +++ (+++ indicates distribution between 40 and 69%) | ++++ (++++ indicates 100% compound remaining after 4 hours) | ++ (++ indicates maximum potency at or above 10 nM) | –
3 | CCC(C)CN1CC2N(C(=O)c3ccc(O)cc3)CCC(=O)N2[C@@H](C)C1=O (stereo partly drawn) [Compound 8a] | ++ (++ indicates 40-79% compound remaining after 4 hours) | – | – | – | – | – | ++++ (++++ indicates 100% compound remaining after 4 hours) | + (+ indicates maximum potency at or above 100 nM) | –
4 | CCC(C)CN1CC2N(Cc3ccc(OC(F)F)cc3)CCC(=O)N2[C@@H](C)C1=O (stereo partly drawn) [Compound 6a] | ++ (++ indicates 40-79% compound remaining after 4 hours) | ++ (++ indicates distribution between 5 and 39%) | ++ (++ indicates distribution between 5 and 39%) | ++ (++ indicates distribution between 5 and 39%) | ++ (++ indicates distribution between 5 and 39%) | ++++ (++++ indicates distribution above 70%) | +++ (+++ indicates 80-99% compound remaining after 4 hours) | + (+ indicates maximum potency at or above 100 nM) | ++++ (++++ indicates distribution above 70%)
5 | C=CCCN1CC2N(C(=O)c3ccc(C(F)(F)F)cc3)CCC(=O)N2C(C)C1=O (stereo not drawn) [Compound 22] | +++ (+++ indicates 80-99% compound remaining after 4 hours) | ++ (++ indicates distribution between 5 and 39%) | ++ (++ indicates distribution between 5 and 39%) | ++ (++ indicates distribution between 5 and 39%) | ++ (++ indicates distribution between 5 and 39%) | +++ (+++ indicates distribution between 40 and 69%) | +++ (+++ indicates 80-99% compound remaining after 4 hours) | +++ (+++ indicates maximum potency at or above 1 nM) | –
6 | CCC(C)CN1CC2N(C(=O)c3ccc(F)cc3)CCC(=O)N2C(C)C1=O (stereo not drawn) [Compound 11, 1-(4-fluorobenzoyl)-6-methyl-8-(2-methylbutyl)hexahydro-4H-pyrazino[1,2-a]pyrimidine-4,7(6H)-dione] | +++ (+++ indicates 80-99% compound remaining after 4 hours) | ++ (++ indicates distribution between 5 and 39%) | + (+ indicates distribution between 0.05 and 5%) | + (+ indicates distribution between 0.05 and 5%) | + (+ indicates distribution between 0.05 and 5%) | ++ (++ indicates distribution between 5 and 39%) | ++++ (++++ indicates 100% compound remaining after 4 hours) | +++ (+++ indicates maximum potency at or above 1 nM) | –
7 | CCC(C)CN1CC2N(C(=O)c3ccc(OC(F)F)cc3)CCC(=O)N2[C@@H](C)C1=O (stereo partly drawn) [Compound 2a] | ++ (++ indicates 40-79% compound remaining after 4 hours) | ++ (++ indicates distribution between 5 and 39%) | + (+ indicates distribution between 0.05 and 5%) | ++ (++ indicates distribution between 5 and 39%) | ++ (++ indicates distribution between 5 and 39%) | ++++ (++++ indicates distribution above 70%) | ++ (++ indicates 40-79% compound remaining after 4 hours) | ++ (++ indicates maximum potency at or above 10 nM) | ++++ (++++ indicates distribution above 70%)
8 | CC1C(=O)N(CCC2CCCC2)CC2N(C(=O)c3ccc(C(F)(F)F)cc3)CCC(=O)N12 (stereo not drawn) [Compound 19] | +++ (+++ indicates 80-99% compound remaining after 4 hours) | – | – | – | – | – | +++ (+++ indicates 80-99% compound remaining after 4 hours) | +++ (+++ indicates maximum potency at or above 1 nM) | –
9 | CCCCN1CC2N(C(=O)c3ccc(OC(F)F)cc3)CCC(=O)N2C(C)C1=O (stereo not drawn) [Compound 17] | +++ (+++ indicates 80-99% compound remaining after 4 hours) | – | – | – | – | – | ++ (++ indicates 40-79% compound remaining after 4 hours) | +++ (+++ indicates maximum potency at or above 1 nM) | –
10 | CCC(C)CN1CC2N(Cc3ccc(O)nc3)CCC(=O)N2[C@@H](C)C1=O (stereo partly drawn) [Compound 7a] | – | + (+ indicates distribution between 0.05 and 5%) | + (+ indicates distribution between 0.05 and 5%) | + (+ indicates distribution between 0.05 and 5%) | + (+ indicates distribution between 0.05 and 5%) | ++++ (++++ indicates distribution above 70%) | – | ++ (++ indicates maximum potency at or above 10 nM) | ++ (++ indicates distribution between 5 and 39%)
